In patent EP4610269A1, “UROKINASE PLASMINOGEN ACTIVATOR SURFACE RECEPTOR (UPAR) LIGANDS FOR DIAGNOSTIC OR THERAPEUTIC USE” (3B Pharmaceuticals GmbH, priority 2024, dated 2025):
Like-named read-outs stand apart in the source and are kept apart here. *1 amine or outer side, *2 acyl side, *3 side chain or, on linkers, in order; H or OH if unused. Where a SMILES comes first, the peptide text is derived from it. Bridges are numbered along the chain shown (N, C = ends). [ ]: non-standard residue; d: D form. The star is where a group is joined. DOTA(Lu) = O=C1CN2CCN3CCN(CC(=O)*)CCN(CC2)CC(=O)[O][Lu]([O]1)[O]C(=O)C3; nBuCAyl = n-butyl-carbamoyl (N-terminal blocking group), CCCCNC(=O)*; DOTA = O=C(O)CN1CCN(CC(=O)O)CCN(CC(=O)*)CCN(CC(=O)O)CC1; X5 = O=C(O)CN1CCN(CC(=O)O)CCN([C@H](CCC(=O)*)C(=O)O)CC1; Pro(cis-4-F) = O=C(O)[C@@H]1C[C@H](F)CN1; Dopa = N[C@@H](Cc1ccc(O)c(O)c1)C(=O)O; Hyp = O=C(O)[C@@H]1C[C@@H](O)CN1; NMeQ = CN[C@@H](CCC(N)=O)C(=O)O; Pentanoyl(4-Me) = CC(C)CCC(=O)*; Cit = NC(=O)NCCC[C@H](N)C(=O)O; Butoxycarbonyl = CCCCOC(=O)*; Phg = N[C@H](C(=O)O)c1ccccc1; Nle = CCCC[C@H](N)C(=O)O; dNMeA = CN[C@H](C)C(=O)O; Nva = CCC[C@H](N)C(=O)O; Pentanoyl = CCCCC(=O)*; CO = O=C([*:1])[*:2]; NHBu = CCCCN*

Tests used:
[1] = target: T1, human uPAR (uPAR-Fc) (Homo sapiens, UniProt Q03405); test: Surface plasmon resonance (SPR) assay, single cycle kinetics; type: binding; conditions: pKD category for uPAR SPR activity assay, uPAR-Fc on Protein A-Chip, 25°C; for Kd: read-out: pKD CAT (converted)
T1 construct: comprising amino acids Leu23-Arg303 according to UniProt entry Q03405.1; purchased R&D Systems 10378-UK-100
T1 sequence (Q03405 23-303): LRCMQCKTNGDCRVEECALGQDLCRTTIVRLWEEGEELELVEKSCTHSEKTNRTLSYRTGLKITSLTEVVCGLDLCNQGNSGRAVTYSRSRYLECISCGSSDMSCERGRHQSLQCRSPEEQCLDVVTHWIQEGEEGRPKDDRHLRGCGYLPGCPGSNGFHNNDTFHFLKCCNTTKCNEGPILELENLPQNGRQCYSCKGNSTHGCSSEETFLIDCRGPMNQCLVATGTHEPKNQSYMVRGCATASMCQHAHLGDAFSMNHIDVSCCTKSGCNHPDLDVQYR
Outline: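 uPAR-Fc (Leu23-Arg303 extracellular domains, human IgG1 Fc) captured on Protein A chip to ~2000 RU; single-cycle kinetics at 25°C in HEPES running buffer pH 7.4 with 0.1% DMSO. KD from double-referenced sensorgrams fitted to 1:1 Langmuir model, reported as pKD.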

[2] = target: T2, uPAR-expressing HEC-265 human endometrial adenocarcinoma cells (Homo sapiens, UniProt Q03405); test: Competitive FACS binding assay; conditions: pIC50 category of FACS binding
T2 construct: Cell surface uPAR-expressing HEC-265 human endometrial adenocarcinoma cells; host or cells: HEC-265
T2 sequence (Q03405 23-335): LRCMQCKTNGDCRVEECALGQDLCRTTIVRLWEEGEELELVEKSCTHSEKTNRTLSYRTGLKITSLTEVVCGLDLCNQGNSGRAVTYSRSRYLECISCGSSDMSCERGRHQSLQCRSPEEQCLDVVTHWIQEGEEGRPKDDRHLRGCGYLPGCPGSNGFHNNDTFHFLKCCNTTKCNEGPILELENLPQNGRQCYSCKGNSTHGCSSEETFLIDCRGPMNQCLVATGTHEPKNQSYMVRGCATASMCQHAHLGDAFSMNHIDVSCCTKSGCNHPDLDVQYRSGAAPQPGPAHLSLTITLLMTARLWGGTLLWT
Outline: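 HEC-265 cells incubated 1 h at 4 °C with 10 nM biotinylated uPAR peptide tracer plus increasing test compound, then stained with APC-streptavidin on ice. Median APC fluorescence by flow cytometry; 4PL fit gives pIC50.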

Row | Compound | Kd ([1]; single cycle kinetics) [nM] | IC50 [2] [nM] | Kd [1] [nM] | further results
1 | CC[C@H](C)[C@@H]1NC(=O)[C@H](C)NC(=O)[C@@H]2CCCN2C(=O)[C@H](Cc2ccccc2)NC(=O)[C@H](Cc2ccc(O)cc2)NC(=O)[C@H](CCC(N)=O)NC(=O)[C@H](CCCNC(=N)N)NC(=O)[C@@H](NC(=O)[C@H](CC(C)C)NC(C)=O)CSSC[C@@H](C(N)=O)NC(=O)[C@H](CC(C)C)NC1=O [UPAR-381, Ac-Leu-[Cys-Arg-Gln-Tyr-Phe-Pro-Ala-Ile-Leu-Cys]-NH2] (Ac-LCRQYFPAILC-NH2; disulfide 2-11) | < 1.58 | ≤ 10 | – | –
2 | CC[C@H](C)[C@@H]1NC(=O)[C@H](C)NC(=O)[C@@H]2CCCN2C(=O)[C@H](Cc2ccccc2)NC(=O)[C@H](Cc2ccc(O)cc2)NC(=O)[C@H](CCSC)NC(=O)[C@H](CCCNC(=N)N)NC(=O)[C@@H](NC(=O)[C@H](CC(C)C)NC(=O)[C@H](CC(=O)O)NC(=O)[C@@H](N)CCSC)CSSC[C@@H](C(N)=O)NC(=O)[C@H](CC(C)C)NC1=O [UPAR-312, H-Met-Asp-Leu-[Cys-Arg-Met-Tyr-Phe-Pro-Ala-Ile-Leu-Cys]-NH2] (H-MDLCRMYFPAILC-NH2; disulfide 4-13) | – | ≤ 10 | 1.58 to 10 | –
3 | CCCCNC(=O)N[C@H]1CSSC[C@@H](C(N)=O)NC(=O)[C@H](CCC)NC(=O)[C@H]([C@@H](C)CC)NC(=O)[C@@H]2C[C@@H](O)CN2C(=O)[C@@H]2CCCN2C(=O)[C@H](Cc2ccccc2)NC(=O)[C@H](Cc2ccc(O)cc2)NC(=O)[C@H](CCCCNC(=O)CN2CCN(CC(=O)O)CCN(CC(=O)O)CCN(CC(=O)O)CC2)NC(=O)[C@H]([C@@H](C)O)NC1=O [UPAR-242, nBuCAyl-[Cys-Thr-Lys(DOTA)-Tyr-Phe-Pro-Hyp-Ile-Nva-Cys]-NHz] ({NHBu-CO}-CTK(DOTA)YFP[Hyp]I[Nva]C-NH2; disulfide 1-10) | – | ≤ 10 | < 1.58 | –
4 | CCCCC(=O)N[C@H]1CSSC[C@@H](C(N)=O)NC(=O)[C@H](CC(C)C)NC(=O)[C@H]([C@@H](C)CC)NC(=O)[C@@H](C)NC(=O)[C@@H]2CCCN2C(=O)[C@H](Cc2ccccc2)NC(=O)[C@H](Cc2ccc(O)cc2)NC(=O)[C@H](CCC(N)=O)NC(=O)[C@H](CCCNC(N)=O)NC1=O [UPAR-362, Pent-[Cys-Cit-Gln-Tyr-Phe-Pro-ala-Ile-Leu-Cys]-NH2] (Pentanoyl-C[Cit]QYFP[dA]ILC-NH2; disulfide 1-10) | < 1.58 | ≤ 10 | – | –
5 | nBuCAyl-[Cys-Cit-Lys(LuDOTA)-Tyr-Phe-Pro-Hyp-Ile-Nva-Cys]-NH2 (nBuCAyl-C[Cit]K(DOTA(Lu))YFP[Hyp]I[Nva]C-NH2; disulfide 1-10; also: Lu(III) chelated by DOTA on Lys3) [UPAR-464] | – | – | – | pKD CAT ([1]; single cycle kinetics): A (pKD values ≥ 8.8); pIC50 CAT [2]: A (pIC50 values ≥8.0)
6 | CC[C@H](C)[C@@H]1NC(=O)[C@H]2CCCN2C(=O)[C@@H]2CCCN2C(=O)[C@H](Cc2ccccc2)NC(=O)[C@H](Cc2ccc(O)cc2)NC(=O)[C@H](CCC(N)=O)NC(=O)[C@H](CCCNC(N)=O)NC(=O)[C@@H](NC(=O)CCC(C)C)CSSC[C@@H](C(N)=O)NC(=O)[C@H](CC(C)C)NC1=O [UPAR-305, iHex-[Cys-Cit-Gln-Tyr-Phe-Pro-pro-Ile-Leu-Cys]-NH2] ({Pentanoyl(4-Me)}-C[Cit]QYFP[dP]ILC-NH2; disulfide 1-10) | – | ≥ 126 | > 100 | –
7 | CCCCC(=O)N[C@H]1CSSC[C@@H](C(N)=O)NC(=O)[C@H](CCC)NC(=O)[C@H](c2ccccc2)NC(=O)[C@@H]2C[C@@H](O)CN2C(=O)[C@@H]2CCCN2C(=O)[C@H](Cc2ccccc2)NC(=O)[C@H](Cc2ccc(O)cc2)NC(=O)[C@H](CCC(N)=O)NC(=O)[C@H](CCCNC(=N)N)NC1=O [UPAR-437, Pent-[Cys-Arg-Gln-Tyr-Phe-Pro-Hyp-Phg-Nva-Cys]-NHz] (Pentanoyl-CRQYFP[Hyp][Phg][Nva]C-NH2; disulfide 1-10) | < 1.58 | ≤ 10 | – | –
8 | CCCC[C@@H]1NC(=O)[C@H](CCCNC(=N)N)NC(=O)[C@@H](NC(=O)[C@H](CC(C)C)NC(=O)[C@H](CC(=O)O)NC(C)=O)CSSC[C@@H](C(N)=O)NC(=O)[C@H](CC(C)C)NC(=O)[C@@H](CC(C)C)NC(=O)[C@H](C)NC(=O)[C@@H]2CCCN2C(=O)[C@H](Cc2ccccc2)NC(=O)[C@H](Cc2ccc(O)cc2)NC1=O [UPAR-420, Ac-Asp-Leu-[Cys-Arg-Nle-Tyr-Phe-Pro-Ala-leu-Leu-Cys]-NH2] (Ac-DLCR[Nle]YFPA[dL]LC-NH2; disulfide 3-12) | 10 to 100 | 39.8 to 100 | – | –
9 | Pent-[Cys-Cit-Lys(LuDOTA)-Tyr-Phe-Pro-nma-Ile-Nva-Cys]-NH2 (Pentanoyl-C[Cit]K(DOTA(Lu))YFP[dNMeA]I[Nva]C-NH2; disulfide 1-10; not fully specified; also: Lu(III) complexed by DOTA) [UPAR-151] | – | – | – | pKD CAT [1]: A (pKD values ≥ 8.8); pIC50 CAT [2]: A (pIC50 values ≥8.0)
10 | CCC[C@@H]1NC(=O)[C@@H](C)NC(=O)[C@@H]2CCCN2C(=O)[C@H](Cc2ccccc2)NC(=O)[C@H](Cc2ccc(O)cc2)NC(=O)[C@H](CCC(N)=O)NC(=O)[C@H](CCCNC(N)=O)NC(=O)[C@@H](NC(=O)CCC(C)C)CSSC[C@@H](C(N)=O)NC(=O)[C@H](CC(C)C)NC1=O [UPAR-136, iHex-[Cys-Cit-Gln-Tyr-Phe-Pro-ala-Nva-Leu-Cys]-NH2] ({Pentanoyl(4-Me)}-C[Cit]QYFP[dA][Nva]LC-NH2; disulfide 1-10) | – | ≤ 10 | 1.58 to 10 | –
11 | CCCC[C@@H]1NC(=O)[C@H](CCCNC(=N)N)NC(=O)[C@@H](NC(=O)[C@H](CC(C)C)NC(=O)[C@H](CC(=O)O)NC(C)=O)CSSC[C@@H](C(N)=O)NC(=O)[C@@H](CC(C)C)NC(=O)[C@H]([C@@H](C)CC)NC(=O)[C@H](C)NC(=O)[C@@H]2CCCN2C(=O)[C@H](Cc2ccccc2)NC(=O)[C@H](Cc2ccc(O)cc2)NC1=O [UPAR-137, Ac-Asp-Leu-[Cys-Arg-Nle-Tyr-Phe-Pro-Ala-Ile-leu-Cys]-NH2] (Ac-DLCR[Nle]YFPAI[dL]C-NH2; disulfide 3-12) | – | 12.6 to 31.6 | 1.58 to 10 | –
12 | CCCCOC(=O)N[C@H]1CSSC[C@@H](C(N)=O)NC(=O)[C@H](CCC)NC(=O)[C@H]([C@@H](C)CC)NC(=O)[C@@H]2C[C@@H](O)CN2C(=O)[C@@H]2C[C@H](F)CN2C(=O)[C@H](Cc2ccccc2)NC(=O)[C@H](Cc2ccc(O)c(O)c2)NC(=O)[C@H](CCCCNC(=O)CC[C@H](C(=O)O)N2CCN(CC(=O)O)CCN(CC(=O)O)CC2)NC(=O)[C@H]([C@@H](C)O)NC1=O [UPAR-444, Butoc-[Cys-Thr-Lys(NODAGA)-Dopa-Phe-4Cfp-Hyp-Ile-Nva-Cys]-NH2] (Butoxycarbonyl-CTK(X5)[Dopa]F[Pro(cis-4-F)][Hyp]I[Nva]C-NH2; disulfide 1-10) | < 1.58 | ≤ 10 | – | –
13 | CC[C@H](C)[C@@H]1NC(=O)[C@@H](C)NC(=O)[C@@H]2CCCN2C(=O)[C@H](Cc2ccccc2)NC(=O)[C@H](Cc2ccc(O)cc2)NC(=O)[C@H](CCC(N)=O)N(C)C(=O)[C@H](CCCNC(N)=O)NC(=O)[C@@H](NC(=O)CCC(C)C)CSSC[C@@H](C(N)=O)NC(=O)[C@H](CC(C)C)NC1=O [UPAR-407, iHex-[Cys-Cit-Nmq-Tyr-Phe-Pro-ala-Ile-Leu-Cys]-NH2] ({Pentanoyl(4-Me)}-C[Cit][NMeQ]YFP[dA]ILC-NH2; disulfide 1-10) | 10 to 100 | ≥ 126 | – | –
14 | Pent-[Cys-Cit-Lys(LaDOTA)-Tyr-Thi-Pro-Hyp-Ile-Nva-Cys]-NH2 [UPAR-166] | – | – | – | pKD CAT [1]: A (pKD values ≥ 8.8); pIC50 CAT [2]: A (pIC50 values ≥8.0)
15 | CC[C@H](C)[C@@H]1NC(=O)[C@@H](C)NC(=O)[C@@H]2CCCN2C(=O)[C@H](Cc2ccccc2)NC(=O)[C@H](Cc2ccc(O)cc2)NC(=O)[C@H](CCC(N)=O)NC(=O)[C@H](CCCNC(N)=O)NC(=O)[C@@H](NC(=O)CCC(C)C)CSSC[C@@H](C(N)=O)NC(=O)[C@H](C)NC1=O [UPAR-402, iHex-[Cys-Cit-Gln-Tyr-Phe-Pro-ala-Ile-Ala-Cys]-NH2] ({Pentanoyl(4-Me)}-C[Cit]QYFP[dA]IAC-NH2; disulfide 1-10) | 1.58 to 10 | 12.6 to 31.6 | – | –
16 | CCCCC(=O)N[C@H]1CSSC[C@@H](C(N)=O)NC(=O)[C@H](CCC)NC(=O)[C@H]([C@@H](C)CC)NC(=O)[C@@H]2C[C@@H](O)CN2C(=O)[C@@H]2C[C@H](F)CN2C(=O)[C@H](Cc2ccccc2)NC(=O)[C@H](Cc2ccc(O)cc2)NC(=O)[C@H](CCCCNC(=O)CN2CCN(CC(=O)O)CCN(CC(=O)O)CCN(CC(=O)O)CC2)NC(=O)[C@H](CCCNC(N)=O)NC1=O [UPAR-365, Pent-[Cys-Cit-Lys(DOTA)-Tyr-Phe-4Cfp-Hyp-Ile-Nva-Cys]-NH2] (Pentanoyl-C[Cit]K(DOTA)YF[Pro(cis-4-F)][Hyp]I[Nva]C-NH2; disulfide 1-10) | < 1.58 | ≤ 10 | – | –
17 | CCCCC(=O)N[C@H]1CSSC[C@@H](C(N)=O)NC(=O)[C@H](CCC)NC(=O)[C@H]([C@@H](C)CC)NC(=O)[C@@H]2C[C@@H](O)CN2C(=O)[C@@H]2CCCN2C(=O)[C@H](Cc2ccccc2)NC(=O)[C@H](Cc2ccc(O)cc2)NC(=O)[C@H](CCCCNC(=O)CN2CCN(CC(=O)O)CCN(CC(=O)O)CCN(CC(=O)O)CC2)NC(=O)[C@H](CO)NC1=O [UPAR-342, Pent-[Cys-Ser-Lys(DOTA)-Tyr-Phe-Pro-Hyp-Ile-Nva-Cys]-NH2] (Pentanoyl-CSK(DOTA)YFP[Hyp]I[Nva]C-NH2; disulfide 1-10) | – | ≤ 10 | < 1.58 | –
